According to patent publication US8101754B2, “Triazole compounds suitable for treating disorders that respond to modulation of the dopamine D3 receptor” (Abbott GmbH & Co. KG, priority 2004, dated 2012):
Where a name gives a salt, the structure may show the parent alone. Read-outs that look alike come from different tables or passages of the source.

How the values were obtained:
[1] = biological target: T1, human dopamine D3 receptors (Homo sapiens, UniProt P35462); assay: Dopamine D3 receptor binding ([125I]-iodosulpride displacement)
T1 construct: expressed in transfected cells; membranes)
Procedure: The substance to be tested was either dissolved in methanol/Chremophor® (BASF-AG) or in dimethyl sulfoxide and then diluted with water to the desired concentration.
Each assay mixture was run in triplicate.
The incubation buffer contained 50 mM tris, 120 mM NaCl, 5 mM KCl, 2 mM CaCl2, 2 mM MgCl2 and 0.1% bovine serum albumin, 10 μM quinolone and 0.1% ascorbic acid (prepared fresh daily). The buffer was adjusted to pH 7.4 with HCl.
Measurement and Analysis:
After having been incubated at 25° C. for 60 minutes, the assay mixtures were filtered through a Wathman GF/B glass fiber filter under vacuum using a cell collecting device. The filters were transferred to scintillation viols using a filter transfer system. After 4 ml of Ultima Gold® (Packard) have been added, the samples were shaken for one hour and the radioactivity was then counted in a Beta-Counter (Packard, Tricarb 2000 or 2200CA). The cpm values were converted into dpm using a standard quench series and the program belonging to the instrument.
The inhibition curves were analyzed by means of iterative nonlinear regression analysis using the Statistical Analysis System (SAS) which is similar to the “LIGAND” program described by Munson and Rodbard.

[2] = biological target: T2, human dopamine D2L receptors (long isoform) (Homo sapiens, UniProt P14416); assay: Dopamine D2L receptor binding ([125I] iodospiperone), basis of selectivity Ki(D2)/Ki(D3); conditions: Table 5; D2L vs D3
T2 construct: expressed in transfected cells; membranes)
Procedure: The substance to be tested was either dissolved in methanol/Chremophor® (BASF-AG) or in dimethyl sulfoxide and then diluted with water to the desired concentration. […] Each assay mixture was run in triplicate. The incubation buffer contained 50 mM tris, 120 mM NaCl, 5 mM KCl, 2 mM CaCl2, 2 mM MgCl2 and 0.1% bovine serum albumin. The buffer was adjusted to pH 7.4 with HCl. Measurement and Analysis: After having been incubated at 25° C. for 60 minutes, the assay mixtures were filtered through a Wathman GF/B glass fiber filter under vacuum using a cell collecting device. The filters were transferred to scintillation viols using a filter transfer system. After 4 ml of Ultima Gold® (Packard) have been added, the samples were shaken for one hour and the radioactivity was then counted in a Beta-Counter (Packard, Tricarb 2000 or 2200CA). The cpm values were converted into dpm using a standard quench series and the program belonging to the instrument. The inhibition curves were analyzed by means of iterative nonlinear regression analysis using the Statistical Analysis System (SAS) which is similar to the “LIGAND” program described by Munson and Rodbard.

[3] = Table 5, membranes of HEK-293 cells, read-out: Ki D3
[4] = compounds II, read-out: Ki D3 values

T2 sequence (P14416 whole entry, canonical isoform): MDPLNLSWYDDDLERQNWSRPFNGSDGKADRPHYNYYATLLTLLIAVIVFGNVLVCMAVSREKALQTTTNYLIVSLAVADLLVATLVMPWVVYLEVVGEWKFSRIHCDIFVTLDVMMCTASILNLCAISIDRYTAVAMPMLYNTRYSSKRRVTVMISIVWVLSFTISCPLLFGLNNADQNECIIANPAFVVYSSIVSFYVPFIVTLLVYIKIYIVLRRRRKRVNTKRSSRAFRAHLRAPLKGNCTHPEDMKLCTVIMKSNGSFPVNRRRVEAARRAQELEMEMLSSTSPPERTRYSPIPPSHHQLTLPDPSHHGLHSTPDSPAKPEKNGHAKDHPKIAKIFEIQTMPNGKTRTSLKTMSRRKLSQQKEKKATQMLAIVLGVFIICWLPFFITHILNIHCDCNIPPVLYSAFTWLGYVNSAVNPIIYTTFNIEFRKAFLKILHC
T1 sequence (P35462 whole entry): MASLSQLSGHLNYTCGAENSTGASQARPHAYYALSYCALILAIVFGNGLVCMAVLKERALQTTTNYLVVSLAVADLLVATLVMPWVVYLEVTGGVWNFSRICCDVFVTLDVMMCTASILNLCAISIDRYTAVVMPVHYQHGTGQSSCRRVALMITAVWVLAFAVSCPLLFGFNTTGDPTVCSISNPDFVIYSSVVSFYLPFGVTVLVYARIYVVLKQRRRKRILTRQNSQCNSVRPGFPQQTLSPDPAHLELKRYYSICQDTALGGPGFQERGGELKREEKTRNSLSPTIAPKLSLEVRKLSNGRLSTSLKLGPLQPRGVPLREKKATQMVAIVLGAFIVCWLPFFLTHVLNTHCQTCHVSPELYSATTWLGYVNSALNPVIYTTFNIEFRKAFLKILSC

Ki [1, 3] [nM]	Selectivity [Ki(D2)/Ki(D3)] [2]	Ki [1, 4] [nM]	Compound
52	14		Cn1cnnc1S(=O)(=O)CCCN1CCN(c2cc(C3CCC3)nc(C(C)(C)C)n2)CC1 [Example 2, 2-tert-Butyl-4-cyclobutyl-6-{4-[3-(4-methyl-4H-[1,2,4]triazole-3-sulfonyl)-propyl]-piperazin-1-yl}-pyrimidine]
12	44		Cn1cnnc1[S+]([O-])CCCN1CCN(c2cc(C3CCC3)nc(C(C)(C)C)n2)CC1 (centres unmarked) [Example 3, 2-tert-Butyl-4-cyclobutyl-6-{4-[3-(4-methyl-4H-[1,2,4]triazole-3-sulfinyl)-propyl]-piperazin-1-yl}-pyrimidine]
38	37		CCCc1cc(N2CCN(CCC[S+]([O-])c3nnc(CC)n3C)CC2)nc(C(C)(C)C)n1.Cl (centres unmarked) [Example 5, 2-tert-Butyl-4-{4-[3-(5-ethyl-4-methyl-4H-[1,2,4]triazole-3-sulfinyl)-propyl]-piperazin-1-yl}-6-propyl-pyrimidine hydrochloride]
28.7	20		Cc1nnc([S+]([O-])CCCN2CCN(c3cc(C4(C)CC4)nc(C(C)(C)C)n3)CC2)n1C (centres unmarked) [Example 6, 2-tert-Butyl-4-{4-[3-(4,5-dimethyl-4H-[1,2,4]triazole-3-sulfinyl)-propyl]-piperazin-1-yl}-6-(1-methyl-cyclopropyl)-pyrimidine]
56	33		CCCc1cc(N2CCN(CCC[S+]([O-])c3nnc(C)n3C)CC2)nc(C(C)(C)C)n1.Cl (centres unmarked) [Example 8, 2-tert-Butyl-4-{4-[3-(4,5-dimethyl-4H-[1,2,4]triazole-3-sulfinyl)-propyl]-piperazin-1-yl}-6-propyl-pyrimidine hydrochloride]
		< 5	Cn1c(SCCCN2CCN(c3cc(C(F)(F)F)nc(C(C)(C)C)n3)CC2)nnc1C1CCCC1 [c.3, 2-tert-Butyl-4-{4-[3-(4-methyl-5-cyclopentyl-4H-[1,2,4]triazol-3-ylsulfanyl)-propyl]-piperazin-1-yl}-6-trifluoromethyl-pyrimidine trifluoroacetate]
		< 5	Cn1c(SCCCN2CCN(c3cc(C(F)F)nc(C(C)(C)C)n3)CC2)nnc1C(F)(F)F [c.6, 2-tert-Butyl-4-{4-[3-(4-methyl-5-trifluoromethyl-4H-[1,2,4]triazol-3-ylsulfanyl)-propyl]-piperazin-1-yl}-6-difluoromethyl-pyrimidine hydrochloride]
		< 5	Cn1c(SCCCN2CCN(c3cc(C(F)F)nc(C(C)(C)C)n3)CC2)nnc1C1CCC1 [c.20, 2-tert-Butyl-4-{4-[3-(4-methyl-5-cyclobutyl-4H-[1,2,4]triazol-3-ylsulfanyl)-propyl]-piperazin-1-yl}-6-difluoromethyl-pyrimidine hydrochloride]
		< 5	Cn1c(SCCCN2CCN(c3cc(C(F)F)nc(C(C)(C)C)n3)CC2)nnc1C1CC1 [c.21, 2-tert-Butyl-4-{4-[3-(4-methyl-5-cyclopropyl-4H-[1,2,4]triazol-3-ylsulfanyl)-propyl]-piperazin-1-yl}-6-difluoromethyl-pyrimidine hydrochloride]
		< 5	Cn1c(SCCCN2CCN(c3cc(C(F)(F)F)nc(C(C)(C)C)n3)CC2)nnc1C(C)(C)C [c.27, 2-tert-Butyl-4-{4-[3-(4-methyl-5-tert-butyl-4H-[1,2,4]triazol-3-ylsulfanyl)-propyl]-piperazin-1-yl}-6-trifluoromethyl-pyrimidine]
		< 5	CCc1cc(N2CCN(CCCSc3nnc(C(F)(F)F)n3C)CC2)nc(C(C)(C)C)n1 [c.28, 2-tert-Butyl-4-{4-[3-(4-methyl-5-trifluoromethyl-4H-[1,2,4]triazol-3-ylsulfanyl)-propyl]-piperazin-1-yl}-6-ethyl-pyrimidine hydrochloride]
		< 5	CCc1nnc(SCCCN2CCN(c3cc(C(F)F)nc(C(C)(C)C)n3)CC2)n1C [c.29, 2-tert-Butyl-4-{4-[3-(4-methyl-5-ethyl-4H-[1,2,4]triazol-3-ylsulfanyl)-propyl]-piperazin-1-yl}-6-difluoromethyl-pyrimidine hydrochloride]
